Test results taken from patent US10039806B2, “Methods and compositions for treating antiprogestin-resistant cancers” (Fundación Sales, priority 2011, dated 2018).

Key:
C4-HI cells = experiment: (3H)-thymidine uptake, primary cultures of purified epithelial cells; assay type: cell-based, mouse; conditions: 48 h, with MPA; P<0.001
Method: (§1) Epithelial cells and carcinoma-associated fibroblasts were separated by differential sedimentation and plated with 10% FCS. Carcinoma-associated fibroblasts were allowed to attach for 0.5 h and the epithelial cells for 24-48 h. The medium was replaced by fresh medium with 10% FCS; thereafter, it was changed every 2-3 days.
(§2) (3H)-thymidine-uptake was used as an indirect method to evaluate cell proliferation. In brief, cells were seeded into 96-well microplates. After attachment (24 h), the cells were incubated for 24 h with 1% steroid-stripped FCS and then for 48 h with the experimental solutions to be tested in 1% chFCS. Fifty percent of the medium was replaced with fresh medium every 24 h. The cells were incubated with 0.4 μCi of 3H-thymidine (specific activity: 20 Ci/mmol) for 24 h, trypsinized, and harvested in a cell harvester. In experiments in which 5azadC was used, the experiments were carried out using proliferating cells (presence of 10% FCS) to guarantee the effect of the demethylating agent. Three different experiments were made using octuplicates, and the means and standard deviations of one representative experiment of the other three are shown. The results are expressed as the proliferation index (cpm […] experimental group/cpm control; mean±SEM).

C4-HIR cells = experiment: as above; assay type: cell-based, mouse; conditions: 48 h, with MPA; P<0.001
Method: as §1, §2

IBH-6-pSG5 tumors = experiment: Xenograft in nude mice; assay type: in vivo, human; conditions: MFP 10 mg/kg/day; p<0.001
Description: BH-6 cell line was developed from an invasive ductal breast carcinoma (1). IBH-6 cells express basal levels of hormone receptors, they are tumorigenic and in vivo express higher levels of PRB than PRA (2). Cells were transfected with human PRB, PRA (pSG5-PRB, pSG5-PRA, kindly provided by K. Horwitz) or with the empty vector (pSG5), together with a plasmid encoding the neomycin resistance gene pIRES-N1(3), using Lipofectamine transfection reagent (Invitrogen) following the manufacturer's instructions. Transfected and selected cells were cultured in medium supplemented with […] G418 (neomycin analogue, GIBCO). The expression of PRB and PRA were analyzed by western blot and immunofluorescence (using Ab7 and Ab6 antibodies from Thermo Fisher). T47D-YA or YB were kindly provided by K. Horwitz and cultured as previously described (4).
Transfected and selected cells were grown up to confluence, washed with PBS, detached with 0.25% trypsin, centrifuged at 1000 rpm for 10 min and resuspended in a final concentration of 10^6 (IBH-6) or 5×10^6 (T47D) cells per 100 μl of culture medium. The cells were sc inoculated into the right flank of nu/nu (IBH-6) or NOD/LtSz-scid/IL-2Rgamma null (T47D-YA or -YB cells) female mice. […]

breast cancer samples = experiment: Cultured breast cancer slices (chopper), Ki67; assay type: cell-based, human; conditions: 10 nM, 48 hs
Description: Sections of formalin-fixed, paraffin-embedded tissue were stained with PR (C-19), or Ki67 (Dako, […]) antibodies using the avidin-biotin-peroxidase complex technique (Vectastain Elite ABC kit; Vector), as described previously (6). Positive cells were counted in 10 high-power fields (HPFs) of each section, using 1000× magnification, and expressed as the mean±SEM of the ratio between the number of positive events and the total cell number. Following the previous experiments shown in PART 1, breast cancer samples obtained after surgery from the Hospital General Pacheco (IRB approved by Hospital and IBYME) were used. Whenever possible, part of the sample is immediately frozen to be used in Western blot studies, other part is fixed to be used in IHC studies and a similar part is kept in medium culture. Slices obtained using a chopper were cultured for 48 hs with DMEM/F12 without phenol red and 10% fetal cal serum with or without MFP 10 nM. Tumor slices were then fixed, paraffin embedded and processed for immunohistochemistry. Cell proliferation was evaluated using Ki67 as described above. The number of slices depends on the sample size.

PR = target: T1, PR (Homo sapiens, UniProt P06401); conditions: T47D cells transfected with MMTV-CAT; cited from earlier work
T1 sequence (P06401 1-933): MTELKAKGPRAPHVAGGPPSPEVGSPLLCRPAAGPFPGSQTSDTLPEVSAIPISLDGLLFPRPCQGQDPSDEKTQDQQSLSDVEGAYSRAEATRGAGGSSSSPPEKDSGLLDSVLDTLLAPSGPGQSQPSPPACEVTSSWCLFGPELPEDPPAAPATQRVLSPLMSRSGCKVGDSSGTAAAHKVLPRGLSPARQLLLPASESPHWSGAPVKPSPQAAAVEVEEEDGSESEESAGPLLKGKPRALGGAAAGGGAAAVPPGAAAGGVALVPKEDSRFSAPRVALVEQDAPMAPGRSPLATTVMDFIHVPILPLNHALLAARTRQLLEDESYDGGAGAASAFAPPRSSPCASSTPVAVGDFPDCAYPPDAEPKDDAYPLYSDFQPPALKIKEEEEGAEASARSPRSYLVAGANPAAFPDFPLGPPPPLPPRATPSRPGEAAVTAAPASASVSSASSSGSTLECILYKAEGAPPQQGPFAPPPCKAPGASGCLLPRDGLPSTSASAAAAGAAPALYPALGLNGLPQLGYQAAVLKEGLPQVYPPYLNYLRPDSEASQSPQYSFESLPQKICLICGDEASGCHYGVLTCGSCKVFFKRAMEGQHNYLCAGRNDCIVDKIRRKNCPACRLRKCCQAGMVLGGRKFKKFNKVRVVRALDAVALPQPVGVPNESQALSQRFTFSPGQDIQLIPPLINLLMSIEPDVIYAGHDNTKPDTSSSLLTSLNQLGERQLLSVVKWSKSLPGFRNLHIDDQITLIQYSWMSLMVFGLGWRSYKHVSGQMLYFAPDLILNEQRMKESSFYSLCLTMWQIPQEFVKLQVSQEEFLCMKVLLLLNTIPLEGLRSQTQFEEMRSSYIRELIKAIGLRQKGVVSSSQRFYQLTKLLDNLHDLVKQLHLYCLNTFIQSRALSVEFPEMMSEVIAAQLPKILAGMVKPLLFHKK

## CC#C[C@]1(O)CC[C@H]2[C@@H]3CCC4=CC(=O)CCC4=C3[C@@H](c3ccc(N(C)C)cc3)C[C@@]21C [RU-486, mifepristone]
C4-HI cells
  MPA-induced proliferative effect: abolished
C4-HIR cells
  MPA-induced proliferative effect: abolished
IBH-6-pSG5 tumors
  in vivo growth: stimulated
Breast cancer samples; 1 PR negative case
  Ki67: no inhibition was observed
Breast cancer samples; 1 case PRA/PRB lower than 1
  Ki67: significant inhibition
Breast cancer samples; 2 cases PRA/PRB lower than 1
  Ki67: no inhibition was observed
Breast cancer samples; 3 cases PRA/PRB high
  Ki67: significant inhibition of Ki67
Breast cancer samples; PRA/PRB lower than 1, FIG. 25
  Ki67, stimulation: significant stimulation
PR
  effect in cells treated with analogs of cyclic AMP: exerts an agonistic effect
